Columns and labels:
Type in all cases: cell-based
[1] = molecular target: T1, human TRPA1 (Homo sapiens, UniProt O75762); test: fluorescent intracellular calcium assay (FLIPR Ca5), HEK293-TRPA1 cells; conditions: agonist; 37 °C, pH 7.4, 0.1% DMSO, 1.25 mM probenecid
T1 construct: tetracycline-induced expression in HEK293 FlpIn/T-REx cells

[2] = molecular target: T2, human CB2 (Homo sapiens, UniProt P34972); test: fluorescent membrane potential assay (MPA Blue), AtT20-CB2 cells; conditions: 37 °C, pH 7.4, 0.1% DMSO; no activation up to the highest concentration tested
T2 construct: gene CNR2; stably expressed in AtT20 FlpIn cells

[3] = molecular target: T1, human TRPA1; test: fluorescent intracellular calcium assay (FLIPR Ca5), HEK293-TRPA1 cells
Text: fluorescent intracellular calcium assay (FLIPR Ca5), HEK293-TRPA1 cells on human TRPA1 | In HEK293-TRPA1 cells cinnamaldehyde produced an increase in Ca5 fluorescence

T1 sequence (O75762 whole entry): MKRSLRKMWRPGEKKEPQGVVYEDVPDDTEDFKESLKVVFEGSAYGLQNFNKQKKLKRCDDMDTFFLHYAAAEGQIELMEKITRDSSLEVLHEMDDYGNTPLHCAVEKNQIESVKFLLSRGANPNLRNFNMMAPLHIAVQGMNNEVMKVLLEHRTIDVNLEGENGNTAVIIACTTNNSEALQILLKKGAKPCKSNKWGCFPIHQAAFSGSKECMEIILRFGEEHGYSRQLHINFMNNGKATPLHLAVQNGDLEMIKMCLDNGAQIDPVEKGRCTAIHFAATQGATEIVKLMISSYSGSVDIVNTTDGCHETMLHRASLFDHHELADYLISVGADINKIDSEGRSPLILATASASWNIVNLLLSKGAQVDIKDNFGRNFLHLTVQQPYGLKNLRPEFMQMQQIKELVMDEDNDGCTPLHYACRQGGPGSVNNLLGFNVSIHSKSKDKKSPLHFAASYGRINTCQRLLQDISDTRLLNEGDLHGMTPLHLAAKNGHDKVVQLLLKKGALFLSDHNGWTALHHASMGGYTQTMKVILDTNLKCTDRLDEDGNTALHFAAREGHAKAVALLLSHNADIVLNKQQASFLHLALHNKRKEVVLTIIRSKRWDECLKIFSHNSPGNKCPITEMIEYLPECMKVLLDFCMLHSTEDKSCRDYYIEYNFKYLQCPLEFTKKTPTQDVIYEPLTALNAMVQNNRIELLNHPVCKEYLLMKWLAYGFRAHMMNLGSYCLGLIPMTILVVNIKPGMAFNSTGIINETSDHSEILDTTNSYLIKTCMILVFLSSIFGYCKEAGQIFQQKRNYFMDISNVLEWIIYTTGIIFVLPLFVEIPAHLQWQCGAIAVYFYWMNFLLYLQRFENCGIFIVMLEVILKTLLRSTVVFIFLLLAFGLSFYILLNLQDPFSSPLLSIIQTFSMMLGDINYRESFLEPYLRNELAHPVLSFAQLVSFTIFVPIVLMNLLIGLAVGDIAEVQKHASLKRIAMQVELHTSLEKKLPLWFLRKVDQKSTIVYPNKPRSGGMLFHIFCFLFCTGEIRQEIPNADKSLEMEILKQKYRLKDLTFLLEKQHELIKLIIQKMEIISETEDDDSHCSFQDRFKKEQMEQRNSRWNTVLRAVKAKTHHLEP
T2 sequence (P34972 whole entry): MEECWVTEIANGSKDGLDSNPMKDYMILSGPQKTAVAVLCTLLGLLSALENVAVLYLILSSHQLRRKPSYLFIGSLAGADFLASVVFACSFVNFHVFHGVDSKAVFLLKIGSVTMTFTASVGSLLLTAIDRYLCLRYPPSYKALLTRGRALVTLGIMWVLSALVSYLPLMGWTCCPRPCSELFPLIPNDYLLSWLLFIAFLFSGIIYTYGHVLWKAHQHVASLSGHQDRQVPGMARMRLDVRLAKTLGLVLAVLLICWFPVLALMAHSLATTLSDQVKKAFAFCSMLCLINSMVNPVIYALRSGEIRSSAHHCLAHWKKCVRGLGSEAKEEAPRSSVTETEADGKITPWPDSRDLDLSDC

| SMILES | increase in fluorescence at 30 μM [1] [%] | EC50 [2] [µM] | EC50 [3] [µM] |
| --- | --- | --- | --- |
| CCCCCc1cc(O)c2c(c1)OC(C)(CCC=C(C)C)C=C2 (single isomer, unassigned; (+)) [(+)-CBC] | 159 ± 27 | > 30 | – |
| O=CC=Cc1ccccc1 [cinnamaldehyde] | – | – | 11 |

— article doi:10.1101/2023.08.01.551199v1, “Activation of cannabinoid CB2 receptors by (−)-cannabichromene but not (+)-cannabichromene” (biorxiv, 2023)
